Test results taken from ChEMBL document CHEMBL1122870, “Synthesis and LTD4 antagonist activity of 2-norleukotriene analogues” (1985).
Active and inactive are the calls of the source. The calls are words filed in the database; no cut-off is given here.

How the values were obtained:
Assay type in all cases: functional
Cavia porcellus [1] = species: Cavia porcellus; test: Evaluated for antagonist activity on Guinea Pig Tracheal Spiral Strips relative to Kb= 0.1 uM for FPL; conditions: Trachea
Cavia porcellus [2] = species: Cavia porcellus; test: Evaluated for antagonist activity on Guinea Pig Tracheal Spiral Strips relative to Kb= 8.1 uM Vs LTE4; conditions: Trachea
Cavia porcellus [3] = species: Cavia porcellus; test: Evaluated for antagonist activity on Guinea Pig Tracheal Spiral Strips relative to Kb= 0.1 uM for FPL; partial agonist; conditions: Trachea
Cavia porcellus [4] = species: Cavia porcellus; test: Evaluated for antagonist activity on Guinea Pig Tracheal Spiral Strips relative to Kb= 0.1 uM for FPL; Inactive (neither agonist nor antagonist activity observed); conditions: Trachea
Cavia porcellus [5] = species: Cavia porcellus; test: Evaluated for antagonist activity on Guinea Pig Tracheal Spiral Strips relative to Kb= 0.1 uM for FPL; Partial agonist; conditions: Trachea, filed as partial agonist

Row | Compound | Kb (Cavia porcellus [1]) [µM] | also measured
1 | CCCCCCCCCCCC/C=C\[C@H](SC[C@H](N)C(=O)NCC(=O)O)[C@H](O)CCCO | 14 | –
2 | CCCCCCCCCCCC/C=C\[C@H](SC[C@H](N)C(=O)O)[C@H](O)CCC(=O)O | – | Kb (Cavia porcellus [2]): 14 µM
3 | CCCCCCCCCCCC/C=C/[C@H](SC[C@H](N)C(=O)NCC(=O)O)[C@H](O)CCC(=O)O | – | Kb (Cavia porcellus [3]): 20 µM
4 | CCCCCCCCCCCC/C=C/[C@H](SC[C@H](N)C(=O)NCC(=O)O)[C@@H](O)CCC(=O)O | – | Kb (Cavia porcellus [3]): 40 µM
5 | CCCCCCCCCCCC/C=C\[C@@H](SC[C@H](N)C(=O)NCC(=O)O)[C@@H](O)CCC(=O)O | 10 | –
6 | CCCCCCCCCCCC/C=C\[C@H](SC[C@H](N)C(=O)NCC(=O)O)[C@H](O)CCC(N)=O | 7.2 | –
7 | CCCCCCCCCCCCCCCCC/C=C\[C@H](SC[C@H](N)C(=O)NCC(=O)O)[C@H](O)CCC(=O)O | – | Kb (Cavia porcellus [4]): inactive
8 | CCCCCCCCCCCC/C=C\[C@H](SC[C@H](N)C(=O)NCC(=O)O)[C@H](O)CCC(=O)O | 6.3 | –
9 | CCCCCCCCCCCC/C=C\[C@@H](SC[C@H](N)C(=O)O)[C@@H](O)CCC(=O)O | 3.4 | –
10 | CCCCCCC/C=C\[C@H](SC[C@H](N)C(=O)NCC(=O)O)[C@H](O)CCC(=O)O | – | Kb (Cavia porcellus [4]): inactive
11 | CCCCCCCCCCCC/C=C\[C@H](SC[C@H](N)C(=O)NCCO)[C@H](O)CCCO | – | Kb (Cavia porcellus [5]): Partial agonist
12 | CCCCCCCCCCCC/C=C\[C@H](SC[C@H](N)C(=O)NCC(N)=O)[C@H](O)CCC(=O)O | 3.5 | –
